System: P. berghei ANKA strain
Test: treatment: 3x3 mg/kg and 3x1 mg/kg po divided doses in infected mice
Assay type: in vivo, Plasmodium berghei
Details: for Activity (%) p.o. SSV: percent reduction of parasitemia day 4
Experimental: Moro NMRI male mice (Fü Albino specific pathogen free) weighing 18±2 g were infected intravenously (i.v.) with 2×10^7 P. berghei ANKA strain-infected erythrocytes from donor mice on day 0 of the experiment. From donor mice with circa 30% parasitemia, heparinized blood was taken and diluted in physiological saline to 10^8 parasitized erythrocytes per ml. An aliquot (0.2 ml) of this suspension was injected i.v. into experimental and control groups of mice. In untreated control mice, parasitemia rose regularly to 40 to 50% by day 3 post-infection and 70 to 80% by day 4 post-infection. The mice died between days 5 and 7 post-infection. Throughout the experiments, mice were kept in groups of three or five animals in Makrolon type II cages in an air-conditioned animal room at 22 to 23° C. A diet with p-aminobenzoic acid (PABA) of 45 mg (NAFAG FUTTER© food N^o 9009 PAB-45) per kg of body weight, and tap water is available ad libitum.
OZ compounds were prepared at an appropriate concentration, either as a solution or a suspension containing SSV (0.5% w/v CMC, 0.5% v/v benzyl alcohol, 0.4% v/v Tween 80, and 0.9% w/v sodium chloride in water). They were administered per os (p.o.) in a total volume of 0.01 ml per gram of mouse. The activity of the compound was determined by a variety of methods outlined in subsequent sections. Survival time was also recorded, and survival to day 30 post-infection was considered to be a cure.
The second experiment consists of administration of divided 3×3 mg/kg and 3×1 mg/kg po doses administered on days 1, 2, and 3 post-infection. On day 4 post-infection, blood smears of all animals were prepared and stained with Giemsa. Parasitemia was determined microscopically, and the difference between the mean value of the control group (taken as 100%) and those of the experimental groups was calculated and expressed as percent reduction. Compounds were administered orally in the SSV vehicle.

[1] = 3 × 1 mg/kg days 1, 2, 3 post-infection
[2] = 3 × 3 mg/kg days 1, 2, 3 post-infection

Compound | Survival (days) p.o. SSV [1] | Activity (%) p.o. SSV [1] | Survival (days) p.o. SSV [2] | Activity (%) p.o. SSV [2]
CCOC(=O)CNCC1CCC2(CC1)OOC1(O2)C2CC3CC(C2)CC1C3.CS(=O)(=O)O (centres unmarked) [compound 290] | 6.8 days | 14% | 10.6 days | 93%
O=C1CN(C(=O)CC2CCC3(CC2)OOC2(O3)C3CC4CC(C3)CC2C4)CCN1 (centres unmarked) [compound 296] | 7.8 days | 49% | 9.4 days | 94%
O=C(CC1CCC2(CC1)OOC1(O2)C2CC3CC(C2)CC1C3)N1CCC(O)CC1 (centres unmarked) [compound 297] | 6.4 days | 22% | 9.4 days | 89%
NS(=O)(=O)c1ccc(NCC2CCC3(CC2)OOC2(O3)C3CC4CC(C3)CC2C4)cc1 (centres unmarked) [compound 298] | 11 days | 93% | 16.4 days | 99.99%
O=c1ccn(CC2CCC3(CC2)OOC2(O3)C3CC4CC(C3)CC2C4)cc1 (centres unmarked) [compound 302] | 13.4 days | 87% | 13.4 days | 99.51%
Cc1ccc(S(=O)(=O)O)cc1.NCCNC(=O)CC1CCC2(CC1)OOC1(O2)C2CC3CC(C2)CC1C3 (centres unmarked) [compound 305] | 9.6 days | 87% | 12.2 days | 99.91%
CS(=O)(=O)O.O=C(O)CNCC1CCC2(CC1)OOC1(O2)C2CC3CC(C2)CC1C3 (centres unmarked) [compound 309] | 9.4 days | 66% | 9.2 days | 99%
NC1(C(=O)NCC2CCC3(CC2)OOC2(O3)C3CC4CC(C3)CC2C4)CCCC1 (centres unmarked) [compound 317] | 11.4 days | 73% | 16.8 days | 100%
CS(=O)(=O)O.NC(=O)CCNCC1CCC2(CC1)OOC1(O2)C2CC3CC(C2)CC1C3 (centres unmarked) [compound 319] | 13 days | 92% | 11.2 days | 99.97%
NC(=O)c1cn(CC2CCC3(CC2)OOC2(O3)C3CC4CC(C3)CC2C4)cn1 (centres unmarked) [compound 320] | 8.6 days | 50% | 9.6 days | 96%
CS(=O)(=O)O.NCCOc1ccc(C2CCC3(CC2)OOC2(O3)C3CC4CC(C3)CC2C4)cc1 (centres unmarked) [compound 323] | 14.4 days | 66% | 14.4 days | 99.95%

— patent US6906205B2, “Spiro and dispiro 1,2,4-trioxolane antimalarials” (Medicines for Malaria Venture MMV, priority 2002, dated 2005)
